From patent US20240415787A1, “COMPOSITION FOR TREATING OR PREVENTING OBESITY OR OBESITY-ASSOCIATED LIVER DISEASE, COMPRISING VERBENONE DERIVATIVES” (SHIN POONG PHARMACEUTICAL CO., LTD., priority 2021, published 2024)

Key:
[1] = system: phosphorylation of Smad2/3; assay: Western blot of Smad2/3 phosphorylation in VAT of HFD-induced mice; type: in vivo; settings: 50 mg/kg as SP-8356 via water, 20 weeks, vs HFD
From the text: (§1) Male C57BL/6 mice (6 weeks old, 20 g body weight) were purchased from Orient-Bio (Seongnam, Korea). All mice were maintained in a 12-hr light/dark cycle and fed ad libitum. To minimize environmental differences, mice were allowed 2 weeks for acclimation before the start of experiments. For diet-induced NAFLD experiments, mice were fed either an HFD (60% of kcal in fat, D12492, Research Diets, NJ, USA) or a normal chow diet (ND) for 20 weeks. All experimental protocols and procedures were approved by the Ethics Committee and the Institutional Animal Care and Use Committee of Korea University College of Medicine (Approval No. KOREA-2019-0026).
(§2) The mice were subdivided into vehicle and SP-1154 (50 mg/kg as SP-8356) groups. SP-1154 was administrated to the mice via tab water and the dose of drug was determined by daily water consumption (6 mL/day) and body weights, which were measured every week.
VAT was lysed in RIPA buffer (Thermo Fisher Scientific, Waltham, MA, USA) with protease inhibitor (GeneDepot, Barker, TX, USA). The protein concentration was quantified using the BCA protein assay kit (Thermo Fisher Scientific, Waltham, MA, USA). […] Protein bands were detected using the ECL assay kit (GE Healthcare, Chicago, IL, USA).

TGF-β1 = assay: qRT-PCR of TGF-β1 mRNA in VAT of HFD-induced mice; type: in vivo; settings: HFD vs HFD with SP-1154, 20 weeks
From the text: as §1, §2
(§3) Total RNA was extracted from VAT samples using the Trizol reagent (Invitrogen, Carlsbad, CA, USA) and the generation of cDNA was performed using the reverse transcription reaction kit (iScript cDNA synthesis kit, Bio-Rad, Hercules, CA, USA). Gene expression was assessed using SYBR Green mixture (iQTM SYBR Green Supermix, Bio-Rad, Hercules, CA, USA) and an iCycler PCR thermocycler (Bio-Rad, Hercules, CA, USA). […]

TGF-βR1 = assay: qRT-PCR of TGF-βR1 mRNA in VAT of HFD-induced mice; type: in vivo; settings: HFD vs HFD with SP-1154, 20 weeks
From the text: as §1, §2, §3

[2] = Body weight and food intake during 20-week HFD study; type: in vivo; settings: HFD-induced mice, 50 mg/kg as SP-8356, 20 weeks; vs HFD
From the text: as §1, §2

VAT inflammation = assay: 18F-FDG PET/CT imaging of VAT metabolic activity (SUVmax); type: in vivo, mice
From the text: as §1
The mice were subdivided into vehicle and SP-1154 (50 mg/kg as SP-8356) groups. SP-1154 was administrated to the mice via tab water and the dose of drug was determined by daily water consumption (6 mL/day) and body weights, which were measured every week. […]
Images were analyzed by two experienced nuclear medicine physicians (KP and HWK) using commercially available software (Syngo. via, Siemens Healthcare, Erlangen, Germany). […] For the evaluation of VAT metabolic activity, region on interest (ROI) was placed along the intra-abdominal fat on each slice and the maximum standardized uptake value (SUVmax) was measured, as previously described. […]

C-reactive protein (CRP) = assay: ELISA of serum C-reactive protein; type: in vivo, mice
From the text: as §1, §2
Serum concentration of C-reactive protein (CRP) was determined using a commercially available ELISA kit (ab157712, Abcam, Cambridge, MA, USA) according to the manufacturer's instruction.

CD68 = CD68 immunohistochemistry of VAT; type: in vivo, mice; settings: IHC on harvested VAT; vs HFD
From the text: as §1, §2
(§4) Mice were sacrificed after 20 weeks of drug administration by using the CO2 chamber. […] Adipocyte surface area of a minimum of 300 cells per group was measured using ImageJ software (version 1.45 s, Bethesda, MD, USA), as previously described. Hepatic steatosis was assessed using three-scale scoring system based on H&E-stained liver: score 1 (mild, 5-33%); score 2 (moderate, 34-66%); score 3 (severe, >66%). […]

[3] = system: macrophage infiltration into VAT; assay: Flow cytometry of F4/80+CD11b+ macrophages in VAT; type: in vivo, mice; settings: vs HFD
From the text: as §1, §2
Cells were suspended in 0.1 mL of fluorescence-activated cell sorting (FACS) buffer (phosphate-buffered saline; PBS with 5% fetal bovine serum; FBS) and incubated with Fc blocker (BD Bioscience, San Jose, CA, USA) at room temperature for 10 min, followed by an additional 30 min with anti-CD45 APC-Cy7, anti-F4/80 PE, and anti-CD11b-PerCP-Cy5.5 (Biolegend, San Diego, CA, USA) antibodies according to the manufacturer's recommendation. […]

GLUT1 = GLUT1 expression in VAT (immunostaining, qRT-PCR); type: in vivo, mice; settings: 20 weeks of HFD, vs HFD
From the text: as §1, §2
(§5) Tissues were incubated with anti-CD68 (ab 125212, Abcam, Cambridge, MA, USA), anti-glucose transporter 1 (GLUT1) (ab652, Abcam, Cambridge, MA, USA), and anti-GLUT4 (ab654, Abcam, MA, USA). Alexa Fluor 594 (Invitrogen, Carlsbad, CA, USA) was used as secondary antibody. All fluorescence images were acquired with Zeiss Axio Scan.Z1 (Carl Zeiss, Jena, Germany). […]

GLUT4 = GLUT4 expression in VAT (immunostaining, qRT-PCR); type: in vivo, mice; settings: 20 weeks of HFD, vs HFD
From the text: as §1, §2, §5

adipocytes in VAT = assay: Histopathology of VAT: adipocyte surface area; type: in vivo, mice; settings: 20 weeks of HFD, vs HFD
From the text: as §1, §2, §4

[4] = Insulin tolerance test (ITT); type: in vivo; settings: HFD-induced mice; vs HFD
From the text: as §1, §2
(§6) For GTT, glucose (2 g/kg body weight) was orally administered to mice after overnight fasting, and blood was drawn to measure glucose concentrations at indicated times thereafter. For ITT, insulin (1.5 insulin units/kg body weight) was intraperitoneally injected into mice after fasting for 4 hours, and blood was drawn to measure blood glucose at indicated times. Insulin concentrations were measured at each indicated time in serum collected from the mice subjected to GTT.

[5] = Glucose tolerance test (GTT); type: in vivo; settings: HFD-induced mice; vs HFD
From the text: as §1, §2, §6

[6] = system: HFD-induced liver steatosis; assay: CT measurement of liver density (Hounsfield units); type: in vivo, mice; settings: measured in HU, vs HFD
From the text: as §1, §2
^18F-FDG PET/CT was performed using a dedicated small animal PET/CT scanner (eXplore Vista DR PET/CT, GE Healthcare, Milwaukee, WI, USA). Mice were not fasted before taking examination and anesthetized with 2% isoflurane in oxygen (1 L/min) during the examination. PET/CT image acquisition was started 40 min after the injection of 18.5 MBq/0.1 mL of ^18F-FDG via the tail vein. Static PET images were acquired for 20 min, followed by CT scan (40 kV, 250 uA). […]

[7] = system: HFD-induced liver steatosis; assay: Liver weight and liver steatosis score of harvested liver; type: in vivo, mice; settings: vs HFD
From the text: as §1, §2, §4

[8] = Blood analysis (serum AST, ALT, total cholesterol); type: in vivo, mice
From the text: as §1, §2
Blood samples were collected immediately before sacrifice. The levels of AST (aspartate aminotransferase), ALT (alanine aminotransferase), total cholesterol, and triglyceride in serum were measured using a FUJI DRI-Chemiclinical Chemistry Analyzer (FUJI DRI-CHEM 4000i, Fuji Film, Tokyo, Japan).

[9] = Solubility in saline / water; type: physicochemical
[10] = Conversion of prodrug to SP-8356
[11] = Efficacy of suspension versus soluble prodrug form; settings: suspension in saline
[12] = normal mice vs SP-1154-treated mice

COc1cc(/C=C/C2=CC(=O)[C@H]3C[C@@H]2C3(C)C)cc(OC(=O)[C@@H](N)C(C)C)c1OC(=O)[C@@H](N)C(C)C.Cl.Cl [SP-1154, (2S,2'S)-5-((E)-2-((1R,5S)-6,6-dimethyl-4-oxobicyclo[3.1.1]hept-2-en-2-yl)vinyl)-3-methoxy-1,2-phenylene bis(2-amino-3-methylbutanoate)-dihydrochloride]
phosphorylation of Smad2/3 in VAT [1]: inhibited | mRNA expression level of TGF-β1 in VAT (TGF-β1): no significant difference | mRNA expression level of TGF-βR1 in VAT (TGF-βR1): no significant difference | HFD-induced body weight gain [2]: significantly attenuated | VAT SUVmax (VAT inflammation; 18F-FDG PET/CT after 20 weeks of HFD, vs HFD): significantly reduced | VAT SUVmax, difference to normal mice (VAT inflammation; [12]): no significant difference | CRP levels, difference to normal mice (C-reactive protein (CRP); [12]): no significant difference | levels of CRP (C-reactive protein (CRP); serum, HFD-induced mice, vs HFD): significantly suppressed | expression of CD68 in VAT (CD68): suppressed | macrophage infiltration into VAT [3]: significantly prevented | GLUT1 expression (GLUT1): decreased | GLUT4 expression (GLUT4): increased | adipocyte size (adipocytes in VAT): significant reduction | insulin resistance (ITT) [4]: significantly improved | glucose homeostasis (GTT) [5]: significantly improved | liver density [6]: significantly enhanced | liver steatosis score ([7]; H&E-stained liver, three-scale scoring): significantly reduced | liver weight ([7]; harvested liver): significantly reduced | serum total cholesterol ([8]; HFD vs HFD with SP-1154): no significant difference | level of ALT ([8]; serum, HFD-induced mice): improved | level of AST ([8]; serum, HFD-induced mice): improved | water solubility ([9]; water): high | conversion of prodrug to SP-8356 [10]: converted to SP-8356 very quickly

COc1cc(C=CC2=CC(=O)[C@H]3C[C@@H]2C3(C)C)cc(O)c1O [SP-8356, (1S,5R)-4-(3,4-dihydroxy-5-methoxystyryl)-6,6-dimethylbicyclo[3.1.1]hept-3-en-2-one]
solubility in saline ([9]; saline): does not dissolve well in saline | efficacy when used as a suspension [11]: weak but significant
